Twelve molecules from PubChem BioAssay AID743471 (Broad Institute, 2014) can be followed below.

The structures appear in SMILES notation.

The experiment has as its system HepG2 viability, ATP luminescence (CellTiter-Glo), 72 h. The experiment can be described thus: HepG2 cell cytotoxicity, dose response, cytotoxicity control, luminescence, dry powder, set 12 (AID 743471).
`COc1cccc2c1C(=O)c1c(O)c3c(c(O)c1C2=O)C[C@@](O)(C(=O)CO)C[C@@H]3O[C@H]1C[C@H](N)[C@H](O)[C@H](C)O1`: the AC35 is 0.0577 µM. Regarding `COc1ccc(C2=Nn3c(nnc3-c3ccccc3OC)SC2)cc1OC`, the AC35 was 0.53 µM. `Cn1cc(-c2ccncc2)c(-c2ccc(OCc3ccc4ccccc4n3)cc2)n1`: the AC35 is 12.9 µM. As for `Nc1ccn([C@@H]2O[C@H](CO)[C@H](O)C2O)c(=O)n1` (some centres not stated), the AC35 is 3.04 µM. As for `CC[C@@]1(O)C(=O)OCc2c1cc1n(c2=O)Cc2cc3c(CN(C)C)c(O)ccc3nc2-1`, the AC35 is 2.2 µM.

For `N#CC1=C(N)Oc2ccc3ccccc3c2C1c1cccc(F)c1` (configuration not stated), the AC35 was 16.4 µM.

Regarding `CCC(C)C(=O)OC1CC(C)C=C2C=CC(C)C(CCC(O)CC(O)CC(=O)O)C21` (configuration not stated), the AC35 was 88 µM. The same measure for `COc1ccc(-c2cc(NC=O)c3ncc(-c4ccc(OC)c(OC)c4)n3c2)cc1`: 3.25 µM; for `COc1ccc(C2=Nn3c(nnc3-c3ccccc3F)SC2)cc1OC`: 20.8 µM; for `Clc1ccc(-c2cnc3ccc(-c4ccccc4)cn23)cc1`: 3.58 µM. On to `COc1ccccc1-c1nnc2n1N=C(c1ccc(O)c(O)c1)CS2`, for which the AC35 was 19.2 µM. In the case of `CCOC(=O)CCNc1cc(N2CCc3ccccc3CC2)nc(-c2ccccn2)n1`, the AC35 is 16.5 µM.
